The record followed here is publication PMC4929936, “Isoform-specific modulation of the chemical sensitivity of conserved TRPA1 channel in the major honeybee ectoparasitic mite, Tropilaelaps mercedesae” (Open Biology, 2016).

One test addresses T1, TmTRPA1b (Tropilaelaps mercedesae, UniProt A0A193PK79).
T1 construct: gene TRPA1; full-length, untagged, transiently expressed in HEK293 cells; expected 143 kD; 15 ankyrin repeats
T1 sequence (A0A193PK79 1-1258): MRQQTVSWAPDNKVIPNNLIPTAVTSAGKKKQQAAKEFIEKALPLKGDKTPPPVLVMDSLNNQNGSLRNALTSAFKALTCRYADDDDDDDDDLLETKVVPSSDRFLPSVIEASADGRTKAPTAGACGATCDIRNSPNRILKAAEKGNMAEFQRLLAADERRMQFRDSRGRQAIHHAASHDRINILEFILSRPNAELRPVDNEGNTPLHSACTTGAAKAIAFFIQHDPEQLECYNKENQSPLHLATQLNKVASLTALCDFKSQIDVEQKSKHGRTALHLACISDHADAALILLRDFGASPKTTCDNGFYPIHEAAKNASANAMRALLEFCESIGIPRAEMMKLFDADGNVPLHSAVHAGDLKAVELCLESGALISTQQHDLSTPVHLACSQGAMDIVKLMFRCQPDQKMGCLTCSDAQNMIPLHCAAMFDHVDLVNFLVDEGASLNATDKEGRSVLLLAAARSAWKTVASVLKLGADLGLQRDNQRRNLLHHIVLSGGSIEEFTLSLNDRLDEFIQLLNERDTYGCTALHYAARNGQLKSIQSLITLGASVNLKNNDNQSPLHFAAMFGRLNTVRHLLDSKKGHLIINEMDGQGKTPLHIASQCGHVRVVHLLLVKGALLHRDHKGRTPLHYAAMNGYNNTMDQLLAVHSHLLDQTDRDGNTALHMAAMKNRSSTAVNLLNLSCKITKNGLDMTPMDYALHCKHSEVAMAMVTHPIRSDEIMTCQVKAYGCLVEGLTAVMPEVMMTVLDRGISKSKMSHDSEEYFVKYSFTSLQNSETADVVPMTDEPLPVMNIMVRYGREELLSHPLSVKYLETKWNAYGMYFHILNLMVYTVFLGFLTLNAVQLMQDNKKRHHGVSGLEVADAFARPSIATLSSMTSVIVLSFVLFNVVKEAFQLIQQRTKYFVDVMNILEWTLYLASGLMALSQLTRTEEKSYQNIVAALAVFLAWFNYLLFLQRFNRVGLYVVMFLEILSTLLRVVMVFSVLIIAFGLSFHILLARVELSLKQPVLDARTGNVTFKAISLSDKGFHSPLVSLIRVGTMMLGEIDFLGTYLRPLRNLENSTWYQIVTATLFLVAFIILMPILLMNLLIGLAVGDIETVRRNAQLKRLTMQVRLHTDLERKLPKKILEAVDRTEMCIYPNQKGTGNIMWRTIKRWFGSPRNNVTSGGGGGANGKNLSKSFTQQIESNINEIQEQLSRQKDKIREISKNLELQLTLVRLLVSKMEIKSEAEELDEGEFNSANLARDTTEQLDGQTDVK
Description: Fura-2 calcium imaging, HEK293. The class given is cell-based. To be noted: pH 7.4, 2 mM CaCl2.

The target in the next test is T2, TmTRPA1a (Tropilaelaps mercedesae, UniProt A0A193PK31).
T2 construct: gene TRPA1; full-length, untagged, transiently expressed in HEK293 cells; expected 134 kD; 15 ankyrin repeats
T2 sequence (A0A193PK31 1-1172): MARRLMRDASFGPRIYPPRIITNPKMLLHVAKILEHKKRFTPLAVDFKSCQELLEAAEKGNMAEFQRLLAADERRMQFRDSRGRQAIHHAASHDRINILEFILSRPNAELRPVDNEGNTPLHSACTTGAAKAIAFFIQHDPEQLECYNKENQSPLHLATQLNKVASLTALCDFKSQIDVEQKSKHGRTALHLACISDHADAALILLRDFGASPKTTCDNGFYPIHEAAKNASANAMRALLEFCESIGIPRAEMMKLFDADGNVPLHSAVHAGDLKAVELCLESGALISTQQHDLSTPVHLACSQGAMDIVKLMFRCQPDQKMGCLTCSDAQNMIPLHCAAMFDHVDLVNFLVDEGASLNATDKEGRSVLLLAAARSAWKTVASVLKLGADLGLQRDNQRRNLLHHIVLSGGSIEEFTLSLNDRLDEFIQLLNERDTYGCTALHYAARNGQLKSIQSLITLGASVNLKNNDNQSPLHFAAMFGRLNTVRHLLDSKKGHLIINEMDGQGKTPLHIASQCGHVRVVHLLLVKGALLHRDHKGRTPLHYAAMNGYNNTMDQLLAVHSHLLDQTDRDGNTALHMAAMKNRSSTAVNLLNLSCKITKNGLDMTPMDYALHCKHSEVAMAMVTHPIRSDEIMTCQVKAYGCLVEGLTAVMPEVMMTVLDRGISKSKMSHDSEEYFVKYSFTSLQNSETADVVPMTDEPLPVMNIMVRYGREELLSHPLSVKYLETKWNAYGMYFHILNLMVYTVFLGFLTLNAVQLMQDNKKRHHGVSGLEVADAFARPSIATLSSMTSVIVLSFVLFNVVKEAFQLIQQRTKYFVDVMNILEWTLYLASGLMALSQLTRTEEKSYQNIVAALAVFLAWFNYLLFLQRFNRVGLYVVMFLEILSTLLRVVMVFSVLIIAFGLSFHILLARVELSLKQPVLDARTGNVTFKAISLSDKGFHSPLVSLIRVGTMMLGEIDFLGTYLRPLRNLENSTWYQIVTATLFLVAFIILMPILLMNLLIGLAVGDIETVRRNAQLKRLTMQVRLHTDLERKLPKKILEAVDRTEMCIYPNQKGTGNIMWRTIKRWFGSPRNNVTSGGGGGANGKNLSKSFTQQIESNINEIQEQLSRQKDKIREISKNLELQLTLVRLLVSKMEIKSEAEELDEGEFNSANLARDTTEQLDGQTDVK
Put plainly: Fura-2 calcium imaging, HEK293. The class given is cell-based. The following applies: activator, pH 7.4, 2 mM CaCl2. An excerpt: Fura-2 calcium imaging, HEK293 on TmTRPA1a | only six of the compounds activated TmTRPA1a.

Turning to `O=CC=Cc1ccccc1` [cinnamaldehyde], the “Fura-2 calcium imaging, HEK293” value at TmTRPA1b (1 mM, electrophilic activator) is “allyl isothiocyanate (AITC), cinnamaldehyde (CA) and diallyl disulfide also activate TmTRPA1b”. In the case of `CCCCCCCCCC(C)=O` [2-undecanone], the “Fura-2 calcium imaging, HEK293” value at TmTRPA1b (1 mM, activator) is given as “We observed robust activation of TmTRPA1b by eight representative plant-derived compounds”; at TmTRPA1a (1 mM) it was “only six of the compounds activated TmTRPA1a. These are nerol, 2-undecanone, carvacrol”. As for `C=CCSSCC=C` [diallyl disulfide], the “Fura-2 calcium imaging, HEK293” value at TmTRPA1b (1 mM, electrophilic activator) was “allyl isothiocyanate (AITC), cinnamaldehyde (CA) and diallyl disulfide also activate TmTRPA1b”. As for `CC1=CCC(O)(C(C)C)CC1` (centres unmarked) [terpinen-4-ol], the “Fura-2 calcium imaging, HEK293” value on TmTRPA1a (1 mM) was “These are nerol, 2-undecanone, carvacrol, geranylacetone, eugenol and terpinen-4-ol”. Consider `CC(=O)CC/C=C(\C)CCC=C(C)C` [geranylacetone], for which the “Fura-2 calcium imaging, HEK293” value on TmTRPA1b (0.5 mM, activator) was “We observed robust activation of TmTRPA1b by eight representative plant-derived compounds”; on TmTRPA1a (0.5 mM), “These are nerol, 2-undecanone, carvacrol, geranylacetone, eugenol and terpinen-4-ol”. Regarding `CC/C=C\C[C@H]1C(=O)CC[C@@H]1CC(=O)OC` [methyl jasmonate], the “Fura-2 calcium imaging, HEK293” value on TmTRPA1b (1 mM, activator) was “We observed robust activation of TmTRPA1b by eight representative plant-derived compounds”.

For the compound `CC(C)=CCCC(C)CCO` (stereo not drawn) [β-citronellol], the “Fura-2 calcium imaging, HEK293” value on TmTRPA1b (1 mM, activator) is listed as “We observed robust activation of TmTRPA1b by eight representative plant-derived compounds”.

`CC(C)=CCC/C(C)=C\CO` [nerol]: the “Fura-2 calcium imaging, HEK293” value at TmTRPA1b (0.5 mM, activator) is listed as “We observed robust activation of TmTRPA1b by eight representative plant-derived compounds”; on TmTRPA1a (1 mM (Figure 5 legend; Methods state 0.5 mM)), “only six of the compounds activated TmTRPA1a. These are nerol, 2-undecanone, carvacrol”. Turning to `C=CCc1ccc(O)c(OC)c1` [eugenol], the “Fura-2 calcium imaging, HEK293” value on TmTRPA1a (1 mM) is “These are nerol, 2-undecanone, carvacrol, geranylacetone, eugenol and terpinen-4-ol”. Take `Cc1ccc(C(C)C)cc1O` [carvacrol]: the “Fura-2 calcium imaging, HEK293” value is recorded as “We observed robust activation of TmTRPA1b by eight representative plant-derived compounds” at TmTRPA1b (0.5 mM, activator) and “only six of the compounds activated TmTRPA1a. These are nerol, 2-undecanone, carvacrol” at TmTRPA1a (0.5 mM).

Regarding `CC12CCC(CC1)C(C)(C)O2` [1,8-cineole], the “Fura-2 calcium imaging, HEK293” value at TmTRPA1b (1 mM, activator) is reported as “We observed robust activation of TmTRPA1b by eight representative plant-derived compounds”. For the compound `C=CCN=C=S` [allyl isothiocyanate], the “Fura-2 calcium imaging, HEK293” value at TmTRPA1b (1 mM, electrophilic activator) was “allyl isothiocyanate (AITC), cinnamaldehyde (CA) and diallyl disulfide also activate TmTRPA1b”.

For the compound `CC1=CCC(C(C)(C)O)CC1` (stereo not drawn) [α-terpineol], the “Fura-2 calcium imaging, HEK293” value at TmTRPA1b (1 mM, activator) was “We observed robust activation of TmTRPA1b by eight representative plant-derived compounds”.
